Results on two compounds are retold here after ChEMBL document CHEMBL4385643, “Design of a brain-penetrant CDK4/6 inhibitor for glioblastoma” (Bioorg Med Chem Lett, 2019).

For test [1], the target named is Tyrosine-protein kinase JAK3 (Homo sapiens) (UniProt P52333). In words: Inhibition of recombinant human GST-tagged JAK3 catalytic domain (781 to 1124 residues) expressed in baculovirus expression system at 0.1 uM using tyrosine-6 peptide as substrate incubated for 60 mins by Z'-LYTE assay relative to control.
Test [2] deals with RAC-beta serine/threonine-protein kinase (Homo sapiens) (UniProt P31751). In words: Inhibition of recombinant full length human His-tagged AKT2 expressed in baculovirus expression system at 0.1 uM using serine/threonine-06 peptide as substrate incubated for 60 mins by Z'-LYTE assay relative to control.
Sequence of RAC-beta serine/threonine-protein kinase (Homo sapiens) (P31751 whole entry, the tested form may be a part): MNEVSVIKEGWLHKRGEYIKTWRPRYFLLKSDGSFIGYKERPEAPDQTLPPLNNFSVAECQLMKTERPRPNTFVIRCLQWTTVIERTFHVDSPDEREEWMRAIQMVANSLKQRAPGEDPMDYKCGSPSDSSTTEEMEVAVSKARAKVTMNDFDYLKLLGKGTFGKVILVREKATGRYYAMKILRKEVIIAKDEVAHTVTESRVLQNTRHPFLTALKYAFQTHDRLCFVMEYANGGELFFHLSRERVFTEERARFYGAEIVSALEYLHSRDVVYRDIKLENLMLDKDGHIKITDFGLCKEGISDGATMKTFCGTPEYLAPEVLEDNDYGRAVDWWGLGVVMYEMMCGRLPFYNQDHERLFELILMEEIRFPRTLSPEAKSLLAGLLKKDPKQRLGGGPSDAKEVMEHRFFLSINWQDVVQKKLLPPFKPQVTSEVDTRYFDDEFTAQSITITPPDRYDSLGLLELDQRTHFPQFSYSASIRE
For test [3], the target named is LIM domain kinase 1 (Homo sapiens) (UniProt P53667). Description: Inhibition of tracer 236 binding to recombinant human His-tagged LIMK1 catalytic domain (285 to 638 residues) expressed in baculovirus expression system at 0.1 uM measured after 60 mins by Lanthascreen assay relative to control. In general terms: Time-resolved FRET reads energy transfer from a long-lived donor to a nearby acceptor.

For test [4], the target named is Phosphatidylinositol 4,5-bisphosphate 3-kinase catalytic subunit alpha isoform (Homo sapiens) (UniProt P42336). In words: Inhibition of recombinant full length human GST-tagged PI3Kalpha expressed in baculovirus expression system at 0.1 uM using PI Lipid Kinase as substrate incubated for 60 mins by Adapta assay relative to control.
Sequence of Phosphatidylinositol 4,5-bisphosphate 3-kinase catalytic subunit alpha isoform (Homo sapiens) (P42336 whole entry, the tested form may be a part, canonical isoform): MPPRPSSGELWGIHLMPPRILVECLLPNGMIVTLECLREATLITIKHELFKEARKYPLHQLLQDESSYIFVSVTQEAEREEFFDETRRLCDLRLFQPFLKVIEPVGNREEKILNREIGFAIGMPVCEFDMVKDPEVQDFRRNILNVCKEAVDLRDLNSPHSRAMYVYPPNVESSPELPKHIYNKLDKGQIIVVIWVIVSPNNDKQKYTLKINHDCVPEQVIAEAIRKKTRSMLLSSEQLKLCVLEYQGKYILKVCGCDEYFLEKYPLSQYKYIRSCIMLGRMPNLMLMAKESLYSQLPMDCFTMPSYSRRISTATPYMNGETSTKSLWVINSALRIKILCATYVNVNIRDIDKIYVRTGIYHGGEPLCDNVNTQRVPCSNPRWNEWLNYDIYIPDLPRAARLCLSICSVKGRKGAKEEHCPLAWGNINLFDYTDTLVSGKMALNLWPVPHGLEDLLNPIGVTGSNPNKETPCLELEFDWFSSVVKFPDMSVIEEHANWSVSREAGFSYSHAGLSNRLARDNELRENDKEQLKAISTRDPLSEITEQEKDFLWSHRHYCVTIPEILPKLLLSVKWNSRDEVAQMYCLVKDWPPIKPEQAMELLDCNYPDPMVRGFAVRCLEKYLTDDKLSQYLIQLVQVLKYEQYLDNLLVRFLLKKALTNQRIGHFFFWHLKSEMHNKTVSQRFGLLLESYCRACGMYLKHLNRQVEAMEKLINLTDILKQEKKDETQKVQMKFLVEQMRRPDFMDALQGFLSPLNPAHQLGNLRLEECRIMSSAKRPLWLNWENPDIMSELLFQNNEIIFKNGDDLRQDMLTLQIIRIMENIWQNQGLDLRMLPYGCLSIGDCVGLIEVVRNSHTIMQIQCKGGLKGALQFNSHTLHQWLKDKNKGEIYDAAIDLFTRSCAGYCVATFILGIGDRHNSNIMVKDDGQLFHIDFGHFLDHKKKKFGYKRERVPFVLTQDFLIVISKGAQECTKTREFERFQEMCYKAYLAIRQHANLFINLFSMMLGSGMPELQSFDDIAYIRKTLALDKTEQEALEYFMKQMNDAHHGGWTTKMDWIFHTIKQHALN
Test [5] has as its target Bone morphogenetic protein receptor type-1A (Homo sapiens) (UniProt P36894). Description: Inhibition of tracer 178 binding to recombinant human GST-tagged BMPR1A catalytic domain (187 to 532 amino acids) expressed insect cell expression system at 0.1 uM measured after 60 mins by Lanthascreen assay relative to control.
For test [6], the target named is Hepatocyte growth factor receptor (Homo sapiens) (UniProt P08581). Description: Inhibition of recombinant human His-tagged MET (956 to 1390 residues) expressed in baculovirus expression system at 0.1 uM using tyrosine-6 peptide as substrate incubated for 60 mins by Z'-LYTE assay relative to control.
Test [7] addresses Phosphorylase b kinase gamma catalytic chain, liver/testis isoform (Homo sapiens) (UniProt P15735). Description: Inhibition of recombinant full length human GST-tagged PHKG2 expressed in baculovirus expression system at 0.1 uM using serine/threonine-7 peptide as substrate incubated for 60 mins by Z'-LYTE assay relative to control.
Test [8] has as its target Receptor tyrosine-protein kinase erbB-4 (Homo sapiens) (UniProt Q15303). Description: Inhibition of recombinant human GST-tagged ERBB4 catalytic domain (708 to 993 residues) expressed in baculovirus expression system at 0.1 uM using tyrosine-1 peptide as substrate incubated for 60 mins by Z'-LYTE assay relative to control.
Test [9] deals with Calcium/calmodulin-dependent protein kinase type 1D (Homo sapiens) (UniProt Q8IU85). Description: Inhibition of recombinant full length human His-tagged CAMK1delta expressed in baculovirus expression system at 0.1 uM using serine/threonine-25 peptide as substrate incubated for 60 mins by Z'-LYTE assay relative to control.
Sequence of Calcium/calmodulin-dependent protein kinase type 1D (Homo sapiens) (Q8IU85 whole entry, looked up, the tested form may be a part): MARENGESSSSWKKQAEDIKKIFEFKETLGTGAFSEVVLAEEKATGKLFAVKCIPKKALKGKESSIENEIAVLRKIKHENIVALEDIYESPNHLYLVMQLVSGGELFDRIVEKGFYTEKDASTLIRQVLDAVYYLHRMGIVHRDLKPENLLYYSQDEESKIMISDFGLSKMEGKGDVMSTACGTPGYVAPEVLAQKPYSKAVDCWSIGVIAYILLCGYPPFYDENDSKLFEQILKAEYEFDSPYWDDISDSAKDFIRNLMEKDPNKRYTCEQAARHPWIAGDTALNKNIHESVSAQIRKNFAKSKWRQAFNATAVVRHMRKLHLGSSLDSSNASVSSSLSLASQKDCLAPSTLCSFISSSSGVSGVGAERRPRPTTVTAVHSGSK
The target in test [10] is Fibroblast growth factor receptor 4 (Homo sapiens) (UniProt P22455). Description: Inhibition of recombinant human His-tagged FGFR4 catalytic domain ([…]) expressed in baculovirus expression system at 0.1 uM using tyrosine-4 peptide as substrate incubated for 60 mins by Z'-LYTE assay relative to control.
The target in test [11] is Mitogen-activated protein kinase kinase kinase 2 (Homo sapiens) (UniProt Q9Y2U5). In words: Inhibition of tracer 236 binding to recombinant full length human GST-tagged MEKK2 expressed in baculovirus expression system at 0.1 uM measured after 60 mins by Lanthascreen assay relative to control.
Test [12] deals with Tyrosine-protein kinase Mer (Homo sapiens) (UniProt Q12866). Description: Inhibition of recombinant human GST-tagged MER (578 to 872 residues) expressed in baculovirus expression system at 0.1 uM using tyrosine-2 peptide as substrate incubated for 60 mins by Z'-LYTE assay relative to control.
For test [13], the target named is Insulin receptor-related protein (Homo sapiens) (UniProt P14616). In words: Inhibition of recombinant human GST-tagged IRR (944 to 1297 residues) expressed in baculovirus expression system at 0.1 uM using tyrosine-4 peptide as substrate incubated for 60 mins by Z'-LYTE assay relative to control.
In test [14] the target is Tyrosine-protein kinase receptor TYRO3 (Homo sapiens) (UniProt Q06418). Description: Inhibition of recombinant human GST-tagged RSE catalytic domain (451 to 890 residues) expressed in baculovirus expression system at 0.1 uM using tyrosine-2 peptide as substrate incubated for 60 mins by Z'-LYTE assay relative to control.
Test [15] deals with Beta-adrenergic receptor kinase 1 (Homo sapiens) (UniProt P25098). In words: Inhibition of recombinant full length human His-tagged GRK2 expressed in baculovirus expression system at 0.1 uM using serine/threonine-16 peptide as substrate incubated for 60 mins by Z'-LYTE assay relative to control.
Test [16] concerns the target Serine/threonine-protein kinase B-raf (Homo sapiens) (UniProt P15056). Description: Inhibition of recombinant full length human GST-tagged BRAF expressed in baculovirus expression system at 0.1 uM using serine/threonine-3 peptide as substrate incubated for 60 mins by Z'-LYTE assay relative to control.
Test [17] addresses Serine/threonine-protein kinase 24 (Homo sapiens) (UniProt Q9Y6E0). Description: Inhibition of recombinant full length human GST-tagged MST3 expressed in baculovirus expression system at 0.1 uM using serine/threonine-7 peptide as substrate incubated for 60 mins by Z'-LYTE assay relative to control.
In test [18] the target is Serine/threonine-protein kinase 25 (Homo sapiens) (UniProt O00506). In words: Inhibition of recombinant full length human GST-tagged YSK1 expressed in baculovirus expression system at 0.1 uM using serine/threonine-7 peptide as substrate incubated for 60 mins by Z'-LYTE assay relative to control.
Test [19] has as its target CDK7/Cyclin H/MNAT1 (Homo sapiens) (UniProt P51946+P50613+P51948). Description: Inhibition of recombinant full length human His-tagged CDK7/CyclinH/MAT1 expressed in baculovirus expression system at 0.1 uM using CDK7/9tide peptide as substrate incubated for 60 mins by Adapta assay relative to control.
Test [20] concerns the target Proto-oncogene tyrosine-protein kinase receptor Ret (Homo sapiens) (UniProt P07949). In words: Inhibition of recombinant human GST-tagged RET (658 to 1114 residues) expressed in baculovirus expression system at 0.1 uM using tyrosine-2 peptide as substrate incubated for 60 mins by Z'-LYTE assay relative to control.
For test [21], the target named is Macrophage colony-stimulating factor 1 receptor (Homo sapiens) (UniProt P07333). In words: Inhibition of recombinant human His-tagged CSF1R catalytic domain (538 to 910 residues) expressed in Baculovirus expression system at 0.1 uM using tyrosine-1 peptide as substrate incubated for 60 mins by Z'-LYTE assay relative to control.
Sequence of Macrophage colony-stimulating factor 1 receptor (Homo sapiens) (P07333 whole entry, the tested form may be a part): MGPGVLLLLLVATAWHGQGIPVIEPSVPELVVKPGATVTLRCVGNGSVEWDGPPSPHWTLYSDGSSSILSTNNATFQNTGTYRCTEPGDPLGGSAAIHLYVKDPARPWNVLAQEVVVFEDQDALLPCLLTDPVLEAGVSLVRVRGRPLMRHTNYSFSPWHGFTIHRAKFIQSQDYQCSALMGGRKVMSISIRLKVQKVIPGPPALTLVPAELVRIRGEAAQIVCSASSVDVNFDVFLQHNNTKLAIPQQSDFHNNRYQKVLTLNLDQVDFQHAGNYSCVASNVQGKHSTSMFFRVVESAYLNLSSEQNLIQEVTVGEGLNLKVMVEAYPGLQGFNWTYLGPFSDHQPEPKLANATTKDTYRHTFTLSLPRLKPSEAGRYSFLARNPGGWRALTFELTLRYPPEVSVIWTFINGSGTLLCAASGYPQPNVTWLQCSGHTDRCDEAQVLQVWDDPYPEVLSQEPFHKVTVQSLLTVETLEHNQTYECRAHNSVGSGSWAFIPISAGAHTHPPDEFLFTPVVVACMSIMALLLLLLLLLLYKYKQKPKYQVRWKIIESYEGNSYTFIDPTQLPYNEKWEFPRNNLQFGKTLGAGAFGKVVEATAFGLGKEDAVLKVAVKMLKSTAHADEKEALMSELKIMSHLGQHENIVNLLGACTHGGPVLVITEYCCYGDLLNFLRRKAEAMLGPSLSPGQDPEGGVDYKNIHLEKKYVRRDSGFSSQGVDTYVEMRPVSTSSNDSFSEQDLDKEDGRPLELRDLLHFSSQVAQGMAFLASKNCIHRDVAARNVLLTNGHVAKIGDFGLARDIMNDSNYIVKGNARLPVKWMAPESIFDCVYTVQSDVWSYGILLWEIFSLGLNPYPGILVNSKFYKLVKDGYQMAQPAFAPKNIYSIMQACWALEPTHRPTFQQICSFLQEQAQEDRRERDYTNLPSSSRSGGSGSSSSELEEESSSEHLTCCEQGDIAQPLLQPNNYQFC
Test [22] concerns the target Mitogen-activated protein kinase kinase kinase kinase 4 (Homo sapiens) (UniProt O95819). In words: Inhibition of recombinant human GST-tagged MAP4K4 catalytic domain (1 to 328 residues) expressed in baculovirus expression system at 0.1 uM using serine/threonine-7 peptide as substrate incubated for 60 mins by Z'-LYTE assay relative to control.

Sequence of Serine/threonine-protein kinase 24 (Homo sapiens) (Q9Y6E0 whole entry, looked up): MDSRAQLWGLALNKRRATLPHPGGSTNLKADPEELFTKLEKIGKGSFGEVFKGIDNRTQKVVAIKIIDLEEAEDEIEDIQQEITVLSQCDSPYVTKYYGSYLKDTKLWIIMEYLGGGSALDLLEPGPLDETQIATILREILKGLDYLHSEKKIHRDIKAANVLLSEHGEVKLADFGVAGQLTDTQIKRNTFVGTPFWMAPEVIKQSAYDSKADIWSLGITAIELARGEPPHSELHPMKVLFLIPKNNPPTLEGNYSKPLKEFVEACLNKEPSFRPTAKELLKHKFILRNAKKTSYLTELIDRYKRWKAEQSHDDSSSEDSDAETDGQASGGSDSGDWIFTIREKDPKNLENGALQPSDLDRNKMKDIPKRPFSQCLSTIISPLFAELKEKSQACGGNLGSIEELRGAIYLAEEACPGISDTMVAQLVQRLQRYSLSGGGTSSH
Sequence of Mitogen-activated protein kinase kinase kinase kinase 4 (Homo sapiens) (O95819 2-1239 limits assumed): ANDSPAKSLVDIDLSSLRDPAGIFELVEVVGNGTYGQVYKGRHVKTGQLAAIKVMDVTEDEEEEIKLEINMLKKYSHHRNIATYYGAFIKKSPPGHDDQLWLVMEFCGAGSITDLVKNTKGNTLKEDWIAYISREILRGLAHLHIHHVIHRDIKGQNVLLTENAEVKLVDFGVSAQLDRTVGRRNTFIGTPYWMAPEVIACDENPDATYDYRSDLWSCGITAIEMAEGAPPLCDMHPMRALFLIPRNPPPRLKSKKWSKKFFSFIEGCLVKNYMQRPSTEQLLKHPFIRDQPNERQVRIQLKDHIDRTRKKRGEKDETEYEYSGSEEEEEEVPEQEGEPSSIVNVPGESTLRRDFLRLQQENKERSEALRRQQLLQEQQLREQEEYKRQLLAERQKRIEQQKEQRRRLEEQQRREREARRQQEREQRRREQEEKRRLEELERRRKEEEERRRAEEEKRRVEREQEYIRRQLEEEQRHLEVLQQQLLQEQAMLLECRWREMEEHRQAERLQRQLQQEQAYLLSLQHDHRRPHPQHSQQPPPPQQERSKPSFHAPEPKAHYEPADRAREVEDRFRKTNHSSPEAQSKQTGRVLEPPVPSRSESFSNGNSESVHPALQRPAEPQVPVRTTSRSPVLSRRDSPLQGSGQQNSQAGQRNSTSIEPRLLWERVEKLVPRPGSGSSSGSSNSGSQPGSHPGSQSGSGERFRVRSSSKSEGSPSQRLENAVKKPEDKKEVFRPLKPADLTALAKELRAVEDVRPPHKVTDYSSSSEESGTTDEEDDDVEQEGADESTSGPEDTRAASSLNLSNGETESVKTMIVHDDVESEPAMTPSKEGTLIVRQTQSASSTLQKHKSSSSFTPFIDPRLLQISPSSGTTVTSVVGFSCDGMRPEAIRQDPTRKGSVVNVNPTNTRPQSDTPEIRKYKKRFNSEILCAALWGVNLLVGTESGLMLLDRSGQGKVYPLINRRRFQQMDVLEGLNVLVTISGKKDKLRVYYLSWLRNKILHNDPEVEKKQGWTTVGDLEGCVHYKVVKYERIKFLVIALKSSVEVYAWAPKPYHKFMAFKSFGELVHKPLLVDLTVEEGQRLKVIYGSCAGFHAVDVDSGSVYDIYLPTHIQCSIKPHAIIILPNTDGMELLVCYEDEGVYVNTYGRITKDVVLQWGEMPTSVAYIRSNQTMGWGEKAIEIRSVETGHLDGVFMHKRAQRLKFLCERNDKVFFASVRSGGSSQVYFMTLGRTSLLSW
Sequence of Phosphorylase b kinase gamma catalytic chain, liver/testis isoform (Homo sapiens) (P15735 whole entry, the tested form may be a part, canonical isoform): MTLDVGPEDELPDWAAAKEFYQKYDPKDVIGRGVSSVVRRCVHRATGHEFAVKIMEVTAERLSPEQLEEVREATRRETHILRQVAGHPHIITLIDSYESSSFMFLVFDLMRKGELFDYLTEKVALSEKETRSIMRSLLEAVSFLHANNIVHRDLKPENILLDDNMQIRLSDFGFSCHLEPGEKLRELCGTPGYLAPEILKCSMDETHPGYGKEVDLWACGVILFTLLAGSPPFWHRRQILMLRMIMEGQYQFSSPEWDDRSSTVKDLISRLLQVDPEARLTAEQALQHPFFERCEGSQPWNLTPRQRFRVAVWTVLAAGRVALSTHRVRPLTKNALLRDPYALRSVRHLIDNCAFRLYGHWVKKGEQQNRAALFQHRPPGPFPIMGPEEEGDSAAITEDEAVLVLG

Regarding `CCN1CCN(Cc2ccc(Nc3ncc(F)c(-c4cc(F)c5nc(C)n(C(C)C)c5c4)n3)nc2)CC1` [ABEMACICLIB], the inhibition (usually the change of the read-out against control, counted positive when it falls) in test [1] was 30%; in test [2] it was 3%; in [3] it was 3.7%; in test [4], 4%; in test [5] it was -0.3%; in test [6], 32.5%. For the same compound, the inhibition in [7] is 7%; in [8], 3%; in test [9], 14%; in test [10], 11%; in test [11], 2.2%; in test [12], 20.5%. For the same compound, the inhibition in test [13] stood at 6%; in [14], 17%; in test [15] it was 0%; in test [16] it was 4.5%; in test [17] it was 17%; in [18], 15%. Moreover, the inhibition in test [19] was 19.1%; in test [20], 5.5%; in [21], 41.4%; in test [22] it was 89.5%.
Consider `CCN1CC2(C1)CN(c1ccc(Nc3ncc(F)c(-c4cnn5c4[C@H](C)CCCC5)n3)nc1)C2`, for which the inhibition in [1] is 61.5%; in [2], 9.5%; in [3], -2%; in [4] it was 1.5%; in [5], 0.5%; in test [6], 10%. Besides, the inhibition was 23% in test [7]; -6.5% in test [8]; 13.5% in test [9]; 4% in test [10]; 10% in test [11]; 4% in test [12]. Also, the inhibition is 1% in [13]; 31% in test [14]; 0.5% in test [15]; 4% in test [16]; 18.5% in [17]; 10.5% in test [18]. Further, the inhibition in test [19] came out at 10.5%; in [20], 13.5%; in [21] it was 88%; in test [22], 39%.
